Test systems include NCI-H226 lung; SNB-19 CNS; MDA-MB-435; TK-10 renal; SR leukemia; LOX IMVI melanoma; NCI-H23 lung; SNB-75 CNS; OVCAR-4 ovarian; HCT-15 colon; IGROV1 ovarian; HCC-2998 colon; UACC-257 melanoma; CCRF-CEM leukemia; HL-60(TB) leukemia; UACC-62 melanoma; RXF 393 renal; SK-MEL-28 melanoma; EKVX NSCLC; NCI-H460 lung.
Assay in all cases: DTP human tumour cell line panel, 48 h

This is an account of results in PubChem BioAssay (NCI).

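Results reflect a 48-hour exposure of cells in 96-well plates to compound at five concentrations. TGI is the concentration that stops growth completely.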

In the case of `O=C(NNC1=NCCCN1)c1ccco1`, the TGI in the test on NCI-H226 lung, in the test with SNB-19 CNS, in the test on MDA-MB-435, in the test with TK-10 renal, in the test on SR leukemia and with LOX IMVI melanoma was more than 100 µM in each case. Besides, the concentration for total growth inhibition (TGI) in the test on NCI-H23 lung, with SNB-75 CNS, with OVCAR-4 ovarian, in the test with HCT-15 colon, in the test with IGROV1 ovarian and with HCC-2998 colon was more than 100 µM each time. In addition, the concentration for total growth inhibition (TGI) with UACC-257 melanoma, in the test with CCRF-CEM leukemia, in the test on HL-60(TB) leukemia, in the test on UACC-62 melanoma, with RXF 393 renal and in the test on SK-MEL-28 melanoma was more than 100 µM each time. Also, the TGI with EKVX NSCLC and in the test with NCI-H460 lung was more than 100 µM throughout.
With `N/N=C(\c1nc2ccc([N+](=O)[O-])cc2[nH]c1=O)C(O)c1ccc(Cl)c(Cl)c1` (stereo not given), the TGI in the test with NCI-H226 lung, in the test with SNB-19 CNS, in the test with MDA-MB-435, in the test on TK-10 renal, in the test on SR leukemia and with LOX IMVI melanoma was more than 100 µM throughout. The concentration for total growth inhibition (TGI) in the test on NCI-H23 lung, in the test on SNB-75 CNS, with OVCAR-4 ovarian, with HCT-15 colon, in the test with IGROV1 ovarian and in the test on HCC-2998 colon was more than 100 µM each time. Also, the concentration for total growth inhibition (TGI) with UACC-257 melanoma, in the test on CCRF-CEM leukemia, in the test on HL-60(TB) leukemia, in the test on UACC-62 melanoma, in the test with RXF 393 renal and with SK-MEL-28 melanoma was more than 100 µM throughout. Besides, the concentration for total growth inhibition (TGI) in the test on EKVX NSCLC and with NCI-H460 lung was more than 100 µM in each case.
With `CCOC(=O)Cc1nnc2n(-c3ccccc3)c(=O)c3ccccc3n12`, the concentration for total growth inhibition (TGI) with NCI-H226 lung, with SNB-19 CNS, in the test with MDA-MB-435, with TK-10 renal, in the test with SR leukemia and with LOX IMVI melanoma was more than 100 µM each time. The total growth inhibition concentration (TGI) with NCI-H23 lung, in the test on SNB-75 CNS, with OVCAR-4 ovarian, in the test with HCT-15 colon, in the test on IGROV1 ovarian and in the test on HCC-2998 colon was more than 100 µM in each case. Moreover, the TGI in the test with UACC-257 melanoma, in the test on CCRF-CEM leukemia, in the test on HL-60(TB) leukemia, in the test with UACC-62 melanoma, in the test with RXF 393 renal and with SK-MEL-28 melanoma was more than 100 µM each time. Moreover, the TGI in the test with EKVX NSCLC and in the test on NCI-H460 lung was more than 100 µM each time.
`COC(=O)c1ccccc1CC1Cc2cc3c(cc2C1=O)CCC3` (stereo not given): the concentration for total growth inhibition (TGI) (as a rule, the concentration giving total growth inhibition) was 63.7 µM in the test with NCI-H226 lung; more than 100 µM in the test on SNB-19 CNS; 10.7 µM in the test with MDA-MB-435; 79.7 µM in the test with TK-10 renal; more than 69 µM with SR leukemia; 31.1 µM in the test with LOX IMVI melanoma. The TGI in the test on NCI-H23 lung is 75.1 µM; in the test on SNB-75 CNS, 55.7 µM; in the test with OVCAR-4 ovarian it was more than 93.3 µM; with HCT-15 colon, more than 67.3 µM; with IGROV1 ovarian, more than 100 µM; with HCC-2998 colon, more than 100 µM. Also, the concentration for total growth inhibition (TGI) with UACC-257 melanoma is 71.5 µM; with CCRF-CEM leukemia it was 62.7 µM; with HL-60(TB) leukemia, 27.6 µM; in the test on UACC-62 melanoma it was 69.6 µM; with RXF 393 renal, 17.1 µM; with SK-MEL-28 melanoma it was more than 100 µM. Also, the TGI is more than 100 µM in the test with EKVX NSCLC and more than 71.4 µM in the test with NCI-H460 lung.
For `O=C(NCCCNCCN1C(=O)c2cccc3cc([N+](=O)[O-])cc(c23)C1=O)c1cc(-c2ccccc2)nc2ccccc12`, the TGI in the test on NCI-H226 lung stood at 24.2 µM; in the test on SNB-19 CNS, 18.9 µM; in the test with MDA-MB-435 it was 2.91 µM; in the test on TK-10 renal it was 21.8 µM; in the test with SR leukemia, 2.1 µM; with LOX IMVI melanoma it was 2.93 µM. Moreover, the TGI in the test with NCI-H23 lung was found to be 7.55 µM; with SNB-75 CNS it was 14.1 µM; in the test on OVCAR-4 ovarian it was 15.1 µM; with HCT-15 colon, 17.2 µM; with IGROV1 ovarian, 15.2 µM; in the test on HCC-2998 colon it was 3.05 µM. In addition, the TGI was found to be 3.95 µM in the test with UACC-257 melanoma; 22.2 µM in the test with CCRF-CEM leukemia; 5.76 µM in the test with HL-60(TB) leukemia; 17.4 µM in the test with UACC-62 melanoma; 3.34 µM in the test on RXF 393 renal; 3.44 µM in the test with SK-MEL-28 melanoma. Also, the results for the TGI in the test on EKVX NSCLC and in the test on NCI-H460 lung were 22.8 µM and 12.6 µM, respectively.
For `COc1ccc2c(c1)-c1c(c3cc(OC)ccc3n1CCCN(C)C)CC2`, the TGI amounted to 6.82 µM in the test with NCI-H226 lung; 34 µM in the test on SNB-19 CNS; 15.1 µM with MDA-MB-435; 39.7 µM in the test with TK-10 renal; 22.1 µM in the test on SR leukemia; 20.9 µM with LOX IMVI melanoma. Besides, the TGI in the test with NCI-H23 lung is 37 µM; with SNB-75 CNS it was 13.9 µM; in the test with OVCAR-4 ovarian, 30.8 µM; with HCT-15 colon it was 32.1 µM; in the test on IGROV1 ovarian, more than 36.2 µM; with HCC-2998 colon, 10.2 µM. Moreover, the concentration for total growth inhibition (TGI) in the test with UACC-257 melanoma was 11.6 µM; in the test on CCRF-CEM leukemia it was 14.1 µM; in the test on HL-60(TB) leukemia, 55.3 µM; in the test with UACC-62 melanoma, 20.6 µM; in the test on RXF 393 renal, 20.2 µM; with SK-MEL-28 melanoma, 13 µM. The total growth inhibition concentration (TGI) came out at 31.4 µM with EKVX NSCLC and 42.9 µM in the test with NCI-H460 lung.
In the case of `C=C1C[C@@H]2O[C@H]3[C@H]4[C@@H](C[C@@H](C)[C@@H](OC(C)=O)[C@H]42)[C@@H](C)CO[C@@]3(C)[C@H](OC(=O)CCCCCCC)C[C@H]1O`, the TGI with NCI-H226 lung is 26.1 µM; in the test with SNB-19 CNS it was 32.4 µM; in the test with MDA-MB-435, 34.8 µM; with TK-10 renal it was 32.8 µM; with SR leukemia, 36.3 µM; in the test on LOX IMVI melanoma, 26.6 µM. For the same compound, the TGI in the test on NCI-H23 lung amounted to 40.2 µM; in the test with SNB-75 CNS, 32.6 µM; in the test with OVCAR-4 ovarian, 28.1 µM; in the test with HCT-15 colon it was 30.4 µM; with IGROV1 ovarian, 36 µM; in the test with HCC-2998 colon it was 30.9 µM. For the same compound, the TGI in the test on UACC-257 melanoma is 32.6 µM; in the test on CCRF-CEM leukemia, 38 µM; in the test with HL-60(TB) leukemia it was 44.1 µM; with UACC-62 melanoma, 31.4 µM; in the test with RXF 393 renal, 36.1 µM; in the test on SK-MEL-28 melanoma it was 32.7 µM. For the same compound, the concentration for total growth inhibition (TGI) in the test with EKVX NSCLC stood at 31 µM; in the test with NCI-H460 lung, 30.1 µM.
